# According to patent US9981923B2, “1,2,3 Triazole antifungal agents and preparation thereof” (COUNCIL OF SCIENTIFIC & INDUSTRIAL RESEARCH, priority 2014, dated 2018):
# Where two headings read alike, the source gives them in different places.
# Assays:
# ergosterol = assay: Effect of the compounds on sterol profile (spectrophotometric ergosterol quantitation); format: cell-based, C. albicans ATCC 24433; conditions: for ergosterol depletion (sterol profile, height of absorbance peaks 220-300 nm): C. albicans ATCC 24433, 24 h, 0.5 MIC and MIC of the lead compounds
# Experimental: Inhibition of lanosterol 14 α-demethylase by azoles results in depletion of ergosterol. The depletion can be quantified by spectrophotometry. Briefly, Overnight grown C. albicans ATCC 24433 (1×10^6 cfu/ml) cells were inoculated in a series of flasks containing 50 ml of Yeast extract Peptone Glucose (YPG) broth containing […] of fluconazole per ml as well as 0.5 MIC and MIC of the lead compounds. The cultures were incubated for 24 h with shaking at 30° C. The stationary-phase cells were harvested by centrifugation […] and washed once with sterile distilled water. The net wet weight of the cell pellet was determined. Three milliliters of 25% alcoholic potassium hydroxide solution (25 g of […] and 35 ml of sterile distilled water, brought to 100 ml with 100% ethanol), was added to 125 mg of pellet and vortex mixed for 1 min. Cell suspensions were transferred to sterile borosilicate glass screw-cap tubes and were incubated in an 85° C. water bath for 1 h. Following incubation, tubes were allowed to cool to room temperature. Sterols were then extracted by addition of a mixture of 1 ml of sterile distilled water and 3 ml of n-heptane followed by vigorous vortex mixing for 3 min. The heptane layer was transferred to a clean borosilicate glass screw-cap tube. The sterol extract was scanned spectrophotometrically between 220 and 300 nm with a Spectrophotometer.
# pathogenic fungi = assay: Antifungal activity, overall assessment of the microbroth dilution results; format: cell-based; conditions: based on the MIC results
# Experimental: (§1) The synthesized compounds were evaluated for antifungal susceptibility by microbroth dilution method according to the recommendations of the Clinical Laboratory Standards Institute (CLSI 2008). Briefly, appropriate amount of compounds were dissolved in dimethyl sulfoxide to get 100× final strength. The stock was then diluted 1:50 in RPMI/YPG medium and 200 μl from this was added to the first row of a 96-well microtitre plate. The compounds were serially diluted two fold in successive wells to get a range of 1-128 μg/ml. Fungal yeast cells (˜2×10^3 cfu/mL), freshly grown in YPG broth in logarithmic phase, were suspended in the medium and inoculated (100 μl) in the wells of the plate. For filamentous fungi, 2×10^4 spores/mL were added. The microtitre plate was incubated for 48 h, and the absorbance was measured at 600 nm by using microtitre plate reader to assess cell growth.
# [1] = system: Candida albicans ATCC 24433; assay: Antifungal susceptibility by microbroth dilution (CLSI); format: cell-based; conditions: Table 1, 48 h, >90% inhibition of growth, range 1-128 μg/ml
# Experimental: as §1
# [2] = system: Candida albicans ATCC 10231; assay: as above; format: cell-based; conditions: Table 1, 48 h, >90% inhibition of growth
# Experimental: as §1
# [3] = system: Candida glabrata NCYC 388; assay: as above; format: cell-based; conditions: Table 1, 48 h, >90% inhibition of growth
# Experimental: as §1
# [4] = system: Aspergillus niger ATCC 10578; assay: as above; format: cell-based; conditions: Table 1, 48 h, >90% inhibition of growth
# Experimental: as §1
# [5] = system: Cryptococcus neoformans ATCC 34664; assay: as above; format: cell-based; conditions: Table 1, 48 h, >90% inhibition of growth
# Experimental: as §1
# [6] = system: Aspergillus fumigatus MCC 1046; assay: as above; format: cell-based; conditions: Table 1, 48 h, >90% inhibition of growth
# Experimental: as §1
# [7] = system: reactive oxygen species (ROS); assay: ROS production using dichlorofluorescin diacetate dye; format: cell-based; conditions: C. albicans ATCC 24433, dichlorofluorescin diacetate dye
# Experimental: Apart from lanosterol 14 a-demethylase inhibition, few azoles like miconazole are known to exert their antifungal action by reactive oxygen species (ROS) generation. Therefore ROS production in C. albicans ATCC 24433 was evaluated for these compounds by using dichlorofluorescin diacetate dye. […] ROS can damage a wide range of molecules, including nucleic acids, proteins and lipids, can cause apoptosis, necrotic death and with this wide range of targets it is difficult to determine which events lead to loss of viability of cells following damage.
smiles,measurement,setting,value
"Cc1cc(C)cc(C(O)c2cn(-c3ccc(Cl)cc3O)nn2)c1 (stereo not shown) [Compound 1ab, 5-Chloro-2-(4-((3,5-dimethylphenyl)(hydroxy)methyl)-1H-1,2,3-triazol-1-yl)phenol]","ergosterol depletion (sterol profile, height of absorbance peaks 220-300 nm)",ergosterol,no ergosterol depletion was observed
same,"antifungal activity, overall assessment",pathogenic fungi,promising molecules
same,MIC,"[1]; Candida albicans, ATCC24433, read-out: MIC",32 µg/mL
same,MIC,"[2]; Candida albicans, ATCC10231, read-out: MIC",32 µg/mL
same,MIC,"[3]; Nakaseomyces glabratus, NCYC388, read-out: MIC",32 µg/mL
same,MIC,"[4]; Aspergillus niger, ATCC10578, read-out: MIC",> 128 µg/mL
same,MIC,"[5]; Cryptococcus neoformans, ATCC34664, read-out: MIC",32 µg/mL
same,MIC,"[6]; Aspergillus fumigatus, MCC1046, read-out: MIC",32 µg/mL
same,ROS generation,[7],dose dependent increase in ROS generation
CCC(O)(c1ccccc1)c1cn(-c2cc(Cl)ccc2O)nn1 (stereo not shown) [Compound 1da],"ergosterol depletion (sterol profile, height of absorbance peaks 220-300 nm)",ergosterol,no ergosterol depletion was observed
same,inhibition of lanosterol 14 α-demethylase enzyme (concluded from ergosterol depletion),ergosterol; C. albicans ATCC 24433 sterol profile,potent inhibitors
same,"antifungal activity, overall assessment",pathogenic fungi,promising molecules
same,MIC,[1],16 µg/mL
same,MIC,[2],16 µg/mL
same,MIC,[3],8 µg/mL
same,MIC,[4],>128 µg/mL
same,MIC,[5],16 µg/mL
same,MIC,[6],>128 µg/mL
same,ROS generation,[7],dose dependent increase in ROS generation
